For 43 compounds, chromatographic logP and inhibition of growth results are on record in patent US11219214B2, “Benzosultams and analogues and their use as fungicides” (Bayer CropScience Aktiengesellschaft, priority 2016, dated 2022).

For data set [1] the following is noted: 0.1% aqueous formic acid and acetonitrile, gradient 10% to 95% acetonitrile.
Description: In table 1a, the log P values were determined in accordance with EEC Directive 79/831 Annex V.A8 by HPLC (High Performance Liquid Chromatography) on a reversed-phase column (C 18), using the method described below:
Method C: temperature: 55° C.; mobile phases: 0.1% aqueous formic acid and acetonitrile; linear gradient from 10% acetonitrile to 95% acetonitrile.
If more than one Log P value is available within the same method, all the values are given and separated by “;”.
In data set [2] the test system is Pyricularia oryzae. Put plainly: microbe, parasite or virus in culture. Format: cell-based. The conditions noted are these: 120 h, read-out: Efficacy, 20 ppm of active ingredient, liquid culture, 5 days incubation, inhibition of fungal growth.
In data set [3] the test system is Leptnosphaeria nodorum. The data set can be described thus: Example C: Leptnosphaeria nodorum in vitro cell test. Format: cell-based. The following applies: 144 h, liquid culture, 6 days incubation, inhibition of fungal growth, read-out: Efficacy; for inhibition of growth at 20 ppm: 20 ppm of active ingredient. The method, then:
Example C: Leptnosphaeria nodorum In Vitro Cell Test • Solvent: dimethyl sulfoxide (DMSO) • Culture medium: 14.6 g anhydrous D-glucose (VWR), 7.1 g Mycological Peptone (Oxoid), 1.4 g granulated Yeast Extract (Merck), QSP 1 liter • Inoculum: spore suspension Active ingredients were solubilized in DMSO and the solution used to prepare the required range of concentrations. […] A spore suspension of L. nodorum was prepared and diluted to the desired spore density. Active ingredients were evaluated for their ability to inhibit spore germination and mycelium growth in liquid culture assay. The compounds were added in the desired concentration to the culture medium with spores. After 6 days incubation, fungi-toxicity of compounds was determined by spectrometric measurement of mycelium growth. Inhibition of fungal growth was determined by comparing the absorbance values in wells containing the active ingredients with the absorbance in control wells without fungicides.

Setting [4] is: Method C: HPLC reversed-phase C 18, 55° C.

Molecules are shown by their SMILES. Read-outs that look alike come from different tables or passages of the source. Bounds are passed on as bounds.

What is called chromatographic logP is a lipophilicity value derived from retention on a column. A lower chromatographic logP goes with a more hydrophilic compound. Consider `Cc1ccc2cc(I)cnc2c1F` [II.03A], for which, in data set [1] (Method A: 40° C.), the chromatographic logP came out at 3.11.

On to `CC1(C)CS(=O)(=O)N(c2cnc3ccccc3c2)c2ccccc21` [I.166, 4,4-dimethyl-1-(quinolin-3-yl)-3,4-dihydro-1H-2,1-benzothiazine 2,2-dioxide], for which the inhibition of growth at 20 ppm in data set [2] fell in the range of 90 to 100%. The same compound returned a chromatographic logP in data set [1] (Method C: 55° C.) of 2.88.

In turn, `COC(=O)c1ccccc1Nc1cnc2ccccc2c1` [methyl 2-(quinolin-3-ylamino)benzoate] showed a chromatographic logP in data set [1] (Method C: 55° C.) of 2.96.

Take `Fc1cc(F)c2ncc(I)cc2c1` [II.05A]: the chromatographic logP in data set [1] (Method A: 40° C.) is 2.88.

Turning to `O=S1(=O)Cc2c(F)cccc2N1` [III.01A], the chromatographic logP in data set [1] (Method A: 40° C.) came out at 1.34.

Consider `CC1(C)c2ccccc2N(c2cnc3ccccc3c2)S(=O)(=O)C1(C)C` [I.172, 3,3,4,4-tetramethyl-1-(quinolin-3-yl)-3,4-dihydro-1H-2,1-benzothiazine 2,2-dioxide], for which the inhibition of growth at 20 ppm in data set [3] and in data set [2] was 90 to 100% throughout. The chromatographic logP in data set [1] (Method C: 55° C.) came to 3.85.

In the case of `Clc1ccc2cc(I)cnc2c1Cl` [II.07A], the chromatographic logP in data set [1] (Method A: 40° C.) came out at 3.83.

Regarding `CC1Cc2ccccc2N(c2cc3ccccc3[n+]([O-])c2)S1(=O)=O` (centres unmarked) [I.162, 3-methyl-1-(1-oxidoquinolin-3-yl)-3,4-dihydro-1H-2,1-benzothiazine 2,2-dioxide], the inhibition of growth at 20 ppm in data set [3] and in data set [2] was 90 to 100% in each case. This compound also showed a chromatographic logP in data set [1] (Method C: 55° C.) of 1.81.

In turn, `CC1Cc2ccccc2NS1(=O)=O` (centres unmarked) [3-methyl-3,4-dihydro-1H-2,1-benzothiazine 2,2-dioxide] came in with a chromatographic logP in data set [1] (Method C: 55° C.) of 1.33.

For the compound `CC1(F)c2ccccc2N(c2cnc3c(F)c(F)ccc3c2)S(=O)(=O)C1(C)C` (centres unmarked) [I.225, 1-(7,8-difluoroquinolin-3-yl)-4-fluoro-3,3,4-trimethyl-3,4-dihydro-1H-2,1-benzothiazine 2,2-dioxide], the inhibition of growth at 20 ppm in data set [3] and in data set [2] was 90 to 100% throughout. The chromatographic logP in data set [1] (Method C: 55° C.) and in data set [1] (setting [4]) was 3.6 throughout.

The compound `O=S1(=O)Cc2cc(C(F)(F)F)ccc2N1` [III.03A] had a chromatographic logP in data set [1] (Method A: 40° C.) of 1.95.

`Fc1cc2cc(I)cnc2cc1F` [II.08A]: in data set [1] (Method A: 40° C.), the chromatographic logP is 3.15.

`N#Cc1cccc2c1CS(=O)(=O)N2` [III.05A]: in data set [1] (Method A: 40° C.), the chromatographic logP came out at 1.08.

With `CC(C)(CS(=O)(=O)Nc1cnc2ccccc2c1)c1ccccc1Br` [VIIIa.18, 2-(2-bromophenyl)-2-methyl-N-(quinolin-3-yl)propane-1-sulfonamide], the chromatographic logP in data set [1] (Method C: 55° C.) was 2.98.

The compound `O=S1(=O)N(Cc2ccccc2)c2ccccc2CC12CC2` [IV.01A] registered a chromatographic logP in data set [1] (Method C: 55° C.) of 3.19.

In the case of `COC(=O)c1ccccc1N(c1cnc2ccccc2c1)S(C)(=O)=O` [Xa.02, methyl 2-[(methylsulfonyl)(quinolin-3-yl)amino]benzoate], the chromatographic logP in data set [1] (Method C: 55° C.) is 2.17.

`FC(F)(F)c1cccc2cc(I)cnc12` [II.01A] registered a chromatographic logP in data set [1] (Method A: 40° C.) of 3.11.

On to `O=C1c2ccccc2N(c2cnc3ccccc3c2)S(=O)(=O)C1(Cl)Cl` [I.239, 3,3-dichloro-1-(quinolin-3-yl)-1H-2,1-benzothiazin-4(3H)-one 2,2-dioxide], for which the chromatographic logP in data set [1] (Method C: 55° C.) and in data set [1] (setting [4]) was 3.49 in each case.

For the compound `C=C1c2ccccc2N(c2cnc3c(F)c(F)ccc3c2)S(=O)(=O)C1(C)C` [I.219, 1-(7,8-difluoroquinolin-3-yl)-3,3-dimethyl-4-methylene-3,4-dihydro-1H-2,1-benzothiazine 2,2-dioxide], the inhibition of growth at 20 ppm in data set [3] and in data set [2] was 90 to 100% each time. Also, the chromatographic logP in data set [1] (Method C: 55° C.) and in data set [1] (setting [4]) was 3.34 each time.

Consider `CC1(O)c2ccccc2N(c2cnc3ccccc3c2)S(=O)(=O)C1(C)C` (centres unmarked) [I.213, 3,3,4-trimethyl-1-(quinolin-3-yl)-3,4-dihydro-1H-2,1-benzothiazin-4-ol 2,2-dioxide], for which the inhibition of growth at 20 ppm in data set [3] and in data set [2] was 80 to 89% in each case. The chromatographic logP in data set [1] (Method C: 55° C.) and in data set [1] (setting [4]) was 2.46 each time.

With `Cc1ccc(F)c2ncc(I)cc12` [II.10A], the chromatographic logP in data set [1] (Method A: 40° C.) was 3.06.

For the compound `O=S1(=O)Cc2c(cccc2OC(F)(F)F)N1` [III.04A], the chromatographic logP in data set [1] (Method A: 40° C.) is 2.11.

For the compound `O=S1(=O)CC(=NOCc2ccccc2)c2ccccc2N1c1cnc2ccccc2c1` [I.241, N-(benzyloxy)-1-(quinolin-3-yl)-1H-2,1-benzothiazin-4(3H)-imine 2,2-dioxide], the inhibition of growth at 20 ppm in data set [2] lay within 70 to 79%. Moreover, the chromatographic logP in data set [1] (Method C: 55° C.) and in data set [1] (setting [4]) was 3.94 in each case.

In data set [1] (Method C: 55° C.), `O=S1(=O)C=CCc2ccccc2N1Cc1ccccc1` [V.01, 1-benzyl-1,5-dihydro-2,1-benzothiazepine 2,2-dioxide] displayed a chromatographic logP of 6.01.

With `N#Cc1ccc2ncc(I)cc2c1` [II.04A], the chromatographic logP in data set [1] (Method A: 40° C.) was determined as 2.5.

For the compound `N#Cc1cccc2cc(I)cnc12` [II.11A], in data set [1] (Method A: 40° C.), the chromatographic logP is 2.54.

`Fc1cc(Cl)cc2cc(I)cnc12` [II.09A] came in with a chromatographic logP in data set [1] (Method A: 40° C.) of 3.15.

For the compound `O=S1(=O)CCCc2ccccc2N1` [IIIc.02, 1,3,4,5-tetrahydro-2,1-benzothiazepine 2,2-dioxide], the chromatographic logP in data set [1] (Method C: 55° C.) came to 1.2.

Regarding `CC1(C)C(F)(F)c2ccccc2N(c2cnc3ccccc3c2)S1(=O)=O` [I.163, 4,4-difluoro-3,3-dimethyl-1-(quinolin-3-yl)-3,4-dihydro-1H-2,1-benzothiazine 2,2-dioxide], the results for the inhibition of growth at 20 ppm in data set [3] and in data set [2] were 90 to 100% and 80 to 89%, respectively. Also, the chromatographic logP in data set [1] (Method C: 55° C.) is 3.25.

As for `CC1(OCc2ccccc2)c2ccccc2N(c2cnc3ccccc3c2)S(=O)(=O)C1(C)C` (centres unmarked) [I.250, 4-(benzyloxy)-3,3,4-trimethyl-1-(quinolin-3-yl)-3,4-dihydro-1H-2,1-benzothiazine 2,2-dioxide], the inhibition of growth at 20 ppm was in the range of 90 to 100% in data set [3] and 80 to 89% in data set [2]. Moreover, the chromatographic logP in data set [1] (Method C: 55° C.) turned out to be 4.04.

Regarding `CC1(C)C(=O)c2ccccc2N(c2cnc3ccccc3c2)S1(=O)=O` [I.156, 3,3-dimethyl-1-(quinolin-3-yl)-1H-2,1-benzothiazin-4(3H)-one 2,2-dioxide], the inhibition of growth at 20 ppm in data set [3] was in the range of 70 to 79%; in data set [2], 90 to 100%. Besides, the chromatographic logP in data set [1] (Method C: 55° C.) came out at 2.93.

Regarding `Fc1cc(F)c2cc(I)cnc2c1` [II.12A], in data set [1] (Method A: 40° C.), the chromatographic logP is 3.31.

Consider `CC1(C)c2ccccc2N(c2cnc3c(F)cccc3c2)S1(=O)=O` [I.015, 3-(3,3-dimethyl-2,2-dioxido-2,1-benzothiazol-1(3H)-yl)-8-fluoroquinoline], for which, in data set [3], the inhibition of growth at 4 ppm was no less than 80% and the inhibition of growth at 20 ppm lay in the range of 90 to 100%. Also, the inhibition of growth at 20 ppm in data set [2] lay in the range of 90 to 100%. The compound also displayed a chromatographic logP in data set [1] (Method A: 40° C.) of 3.12.

In data set [1] (Method A: 40° C.), `Fc1ccc(F)c2ncc(I)cc12` [II.06A] displayed a chromatographic logP of 2.94.

In data set [1] (Method C: 55° C.), `O=S1(=O)Nc2ccccc2CC12CC2` [III.07A] had a chromatographic logP of 1.49.

With `O=S1(=O)Cc2ccccc2N1c1cnc2c(F)cccc2c1` [I.018, 3-(2,2-dioxido-2,1-benzothiazol-1(3H)-yl)-8-fluoroquinoline], the inhibition of growth at 20 ppm in data set [3] lay in the range of 90 to 100%. The same compound came in with a chromatographic logP in data set [1] (Method A: 40° C.) of 2.52.

`O=C1CS(=O)(=O)N(c2cnc3ccccc3c2)c2ccccc21` [I.159, 1-(quinolin-3-yl)-1H-2,1-benzothiazin-4(3H)-one 2,2-dioxide] returned a chromatographic logP in data set [1] (Method C: 55° C.) of 2.28.

`Fc1c(Cl)ccc2cc(I)cnc12` [II.02A] had a chromatographic logP in data set [1] (Method A: 40° C.) of 3.37.

Compound `CC1Cc2ccccc2N(c2cnc3ccccc3c2)S1(=O)=O` (centres unmarked) [I.158, 3-methyl-1-(quinolin-3-yl)-3,4-dihydro-1H-2,1-benzothiazine 2,2-dioxide] gave a chromatographic logP in data set [1] (Method C: 55° C.) of 2.58.

For the compound `CC1C(C)(C)c2ccccc2N(c2cnc3ccccc3c2)S1(=O)=O` (centres unmarked) [I.173, 3,4,4-trimethyl-1-(quinolin-3-yl)-3,4-dihydro-1H-2,1-benzothiazine 2,2-dioxide], the inhibition of growth at 20 ppm in data set [3] and in data set [2] was 90 to 100% each time. In data set [1] (Method C: 55° C.), this compound returned a chromatographic logP of 3.53.

Take `CC1(C)Cc2ccccc2NS1(=O)=O` [III.06A]: the chromatographic logP in data set [1] (Method C: 55° C.) worked out at 1.6.

`O=S1(=O)Cc2c(cccc2C(F)(F)F)N1` [III.02A] displayed a chromatographic logP in data set [1] (Method A: 40° C.) of 1.99.

On to `COC1N(c2cnc3c(F)cccc3c2)c2ccccc2C1(C)C` (centres unmarked) [CMP1, 8-fluoro-3-(2-methoxy-3,3-dimethyl-2,3-dihydro-1H-indol-1-yl)quinoline, reference compound], for which, in data set [3], the inhibition of growth at 4 ppm worked out at 0% and the inhibition of growth at 20 ppm was 5%. Besides, in data set [2], the inhibition of growth at 20 ppm is 7%.
